Key:
A549 = assay: Cytotoxicity against human A549 cells after 48 hrs by sulforhodamine B assay; type: functional, cell-based; conditions: A549, 48 h
[1] = Cytotoxicity against mouse RAW264.7 cells assessed as reduction in cell viability after 24 hrs by CCK8 assay; type: cell-based
HT-29 = assay: Cytotoxicity against human HT-29 cells after 48 hrs by sulforhodamine B assay; type: functional, cell-based; conditions: HT-29, 48 h
CAPAN-1 = assay: Cytotoxicity against human Capan1 cells after 48 hrs by sulforhodamine B assay; type: functional, cell-based; conditions: CAPAN-1, 48 h
SNU-398 = assay: Cytotoxicity against human SNU398 cells after 48 hrs by sulforhodamine B assay; type: functional, cell-based; conditions: SNU-398, 48 h
RAW264.7 = assay: Antiinflammatory activity in mouse RAW264.7 cells assessed as inhibition of LPS-induced TNFalpha production pretreated for 30 mins followed by LPS stimulation for 24 hrs by ELISA; type: functional, cell-based
[2] = Selectivity index, ratio of CC50 for mouse RAW264.7 cells to IC50 for inhibition of LPS-induced TNFalpha production in mouse RAW264.7 cells; type: toxicity, cell-based; conditions: read-out: Ratio CC50/IC50

| Structure (SMILES) | IC50 (A549) | CC50 at 24 h [1] | IC50 (HT-29) | IC50 (CAPAN-1) | IC50 (SNU-398) | IC50 (RAW264.7) | selectivity ratio [2] |
| --- | --- | --- | --- | --- | --- | --- | --- |
| C=C(C(=O)OCCCC)[C@H]1CC[C@](C)(O)C(=O)CC/C(C)=C/CC[C@]2(C)O[C@@H]2C1 | > 50 µM | > 50 µM | > 50 µM | > 50 µM | > 50 µM | 38.9 µM | > 1.3 |
| C=C(C(=O)OC)[C@H]1CC[C@@]2(C)O[C@@H]2CC/C(C)=C/CC[C@@]2(C)O[C@H]2C1 | > 50 µM | > 50 µM | > 50 µM | > 50 µM | > 50 µM | 4.2 µM | > 11.9 |
| C=C(C(=O)OCCCC)[C@@H]1CC[C@@](C)(O)[C@H](O)CC/C(C)=C/CC[C@]2(C)O[C@H]2C1 | > 50 µM | > 50 µM | > 50 µM | > 50 µM | > 50 µM | > 50 µM | – |
| C=C1C(=O)O[C@]2(C)CC[C@@H]1C[C@@H]1O[C@@]1(C)CC/C=C(\C)CC[C@H]2OC(C)=O | > 50 µM | > 50 µM | 32.6 µM | 28.7 µM | 24.9 µM | 2.7 µM | > 18.5 |
| C=C(C(=O)OCCCC)[C@@H]1CC[C@@](C)(O)[C@@H]2CC[C@](C)(O2)[C@@H](OC(C)=O)CC[C@]2(C)O[C@H]2C1 | > 50 µM | > 50 µM | > 50 µM | > 50 µM | > 50 µM | 20.7 µM | > 2.4 |
| C=C(C(=O)OC)[C@H]1CC[C@](C)(O)C(=O)CC/C(C)=C/CC[C@]2(C)O[C@@H]2C1 | > 50 µM | > 50 µM | > 50 µM | > 50 µM | > 50 µM | 13.3 µM | > 3.8 |
| C=C(C)[C@@H]1CC[C@]2(C)O[C@H]2CC/C(C)=C/CC[C@]2(C)O[C@H]2C1 | > 50 µM | > 50 µM | > 50 µM | > 50 µM | > 50 µM | > 50 µM | – |
| C=C1C(=O)O[C@]2(C)CC[C@@H]1C[C@@H]1O[C@@]1(C)CC/C=C(\C)CCC2=O | 27.4 µM | > 50 µM | 22.7 µM | 9.4 µM | 8.9 µM | > 50 µM | – |
| C[C@@H]1C[C@H]2[C@@H]3CCC4=CC(=O)C=C[C@]4(C)[C@@]3(F)[C@@H](O)C[C@]2(C)[C@@]1(O)C(=O)CO [DEXAMETHASONE] | – | > 50 µM | – | – | – | 8.7 µM | > 5.7 |
| CC(=O)O[C@H]1C(=O)[C@@]2(C)[C@H]([C@H](OC(=O)c3ccccc3)[C@]3(O)C[C@H](OC(=O)[C@H](O)[C@@H](NC(=O)c4ccccc4)c4ccccc4)C(C)=C1C3(C)C)[C@]1(OC(C)=O)CO[C@@H]1C[C@@H]2O [PACLITAXEL] | – | – | – | 0.0033 µM | 0.0006 µM | – | – |
| C=C1C(=O)O[C@]2(C)CC[C@@H]1C[C@@H]1O[C@@]1(C)CC/C=C(\C)CC[C@@H]2O [SINULARIOLIDE] | > 50 µM | > 50 µM | 33.6 µM | 26.1 µM | 24.7 µM | 4.7 µM | > 10.6 |

Reference: ChEMBL document CHEMBL4371055, “Bioactive polyoxygenated cembranoids from a novel Hainan chemotype of the soft coral Sinularia flexibilis” (Bioorg Med Chem Lett, 2019)
